From ChEMBL document CHEMBL3400026, “Synthesis of novel 24-amino-25,26,27-trinorlanost-8-enes: cytotoxic and apoptotic potential in U937 cells” (Bioorg Med Chem, 2015)
The source made the active and inactive calls. No cut-off for these calls is given here.

How the values were obtained:
U-937 [1] = test: Induction of apoptosis in human U937 cells assessed as DNA fragmentation measured as DNA laddering at 10 ug/ml after 24 hrs by agarose gel electophoresis relative to solvent control; assay type: functional, cell-based
U-937 [2] = test: Induction of apoptosis in human U937 cells assessed as condensed/fragmented nuclei at 10 ug/ml after 24 hrs using Hoechst 33342 staining by microscopy relative to solvent control; assay type: functional
U-937 [3] = test: Induction of apoptosis in human U937 cells assessed as caspase 3/7 level at 10 ug/ml after 24 hrs by Caspase-Glo 3/7 assay relative to solvent control; assay type: functional
U-937 [4] = test: Induction of apoptosis in human U937 cells assessed as condensed/fragmented nuclei at 5 ug/ml after 24 hrs using Hoechst 33342 staining by microscopy relative to solvent control; assay type: functional
[5] = Cytotoxicity against human U937 cells after 24 hrs by MTT assay; assay type: functional, cell-based; conditions: U-937, 24 h
U-937 [6] = test: Induction of apoptosis in human U937 cells assessed as caspase 3/7 level at 5 ug/ml after 24 hrs by Caspase-Glo 3/7 assay relative to solvent control; assay type: functional
U-937 [7] = test: Induction of apoptosis in human U937 cells assessed as DNA fragmentation measured as DNA laddering at 25 ug/ml after 24 hrs by agarose gel electophoresis relative to solvent control; assay type: functional, cell-based
U-937 [8] = test: Induction of apoptosis in human U937 cells assessed as condensed/fragmented nuclei at 50 ug/ml after 24 hrs using Hoechst 33342 staining by microscopy relative to solvent control; assay type: functional
U-937 [9] = test: Induction of apoptosis in human U937 cells assessed as caspase 3/7 level at 50 ug/ml after 24 hrs by Caspase-Glo 3/7 assay relative to solvent control; assay type: functional
U-937 [10] = test: Induction of apoptosis in human U937 cells assessed as condensed/fragmented nuclei at 25 ug/ml after 24 hrs using Hoechst 33342 staining by microscopy relative to solvent control; assay type: functional
U-937 [11] = test: Induction of apoptosis in human U937 cells assessed as caspase 3/7 level at 25 ug/ml after 24 hrs by Caspase-Glo 3/7 assay relative to solvent control; assay type: functional
U-937 [12] = test: Induction of apoptosis in human U937 cells assessed as DNA fragmentation measured as DNA laddering at 5 ug/ml after 24 hrs by agarose gel electophoresis relative to solvent control; assay type: functional, cell-based
U-937 [13] = test: Induction of apoptosis in human U937 cells assessed as condensed/fragmented nuclei at 12 ug/ml after 24 hrs using Hoechst 33342 staining by microscopy relative to solvent control; assay type: functional
U-937 [14] = test: Induction of apoptosis in human U937 cells assessed as caspase 3/7 level at 12 ug/ml after 24 hrs by Caspase-Glo 3/7 assay relative to solvent control; assay type: functional
U-937 [15] = test: Induction of apoptosis in human U937 cells assessed as DNA fragmentation measured as DNA laddering at 12 ug/ml after 24 hrs by agarose gel electophoresis relative to solvent control; assay type: functional, cell-based

SMILES | Activity (U-937 [2]) [%] | Activity (U-937 [3]) [%] | Activity (U-937 [4]) [%] | IC50 [5] [µM] | Activity (U-937 [6]) [%] | further results
CC(=O)O[C@H]1CC[C@]2(C)C3=C(CC[C@H]2C1(C)C)[C@]1(C)CC[C@H]([C@H](C)CCCN2CCN(CCO)CC2)[C@@]1(C)CC3 | 10.2 | 7.8 | 7.3 | 9.3 | 6.6 | Activity (U-937 [1]): Active
CC(=O)O[C@H]1CC[C@]2(C)C3=C(CC[C@H]2C1(C)C)[C@]1(C)CC[C@H]([C@H](C)CCCN2CCCCC2)[C@@]1(C)CC3 | – | – | – | 14.9 | – | Activity (U-937 [7]): Active; Activity (U-937 [8]): 10.6%; Activity (U-937 [9]): 3.4%; Activity (U-937 [10]): 8.8%; Activity (U-937 [11]): 1.9%
CCN(CC)CCC[C@@H](C)[C@H]1CC[C@@]2(C)C3=C(CC[C@]12C)[C@@]1(C)CC[C@H](O)C(C)(C)[C@@H]1CC3 | 3 | 2.4 | 3.7 | 3.5 | 2.3 | Activity (U-937 [12]): Active
CCN(CC)CCC[C@@H](C)[C@H]1CC[C@@]2(C)C3=C(CC[C@]12C)[C@@]1(C)CC[C@H](OC(C)=O)C(C)(C)[C@@H]1CC3 | 6.9 | 4.9 | – | 16.4 | – | Activity (U-937 [1]): Active; Activity (U-937 [10]): 6.6%; Activity (U-937 [11]): 7.3%
CC(C)CCC[C@@H](C)[C@H]1CC[C@H]2[C@@H]3C(=O)C=C4C[C@@H](O)CC[C@]4(C)[C@H]3CC[C@]12C [7-OXOCHOLESTEROL] | – | – | – | – | – | Activity (U-937 [13]): 7.3%; Activity (U-937 [14]): 2.2%; Activity (U-937 [15]): Active
CC(=O)O[C@H]1CC[C@]2(C)C3=C(CC[C@H]2C1(C)C)[C@]1(C)CC[C@H]([C@H](C)CCCN2CCOCC2)[C@@]1(C)CC3 | – | – | – | 148 | – | –
CC[N+]([O-])(CC)CCC[C@@H](C)[C@H]1CC[C@@]2(C)C3=C(CC[C@]12C)[C@@]1(C)CC[C@H](OC(C)=O)C(C)(C)[C@@H]1CC3 | – | – | – | 21.1 | – | Activity (U-937 [7]): Active; Activity (U-937 [8]): 5%; Activity (U-937 [9]): 4.3%; Activity (U-937 [10]): 7%; Activity (U-937 [11]): 4.4%
C[C@H](CCCN1CCCCC1)[C@H]1CC[C@@]2(C)C3=C(CC[C@]12C)[C@@]1(C)CC[C@H](O)C(C)(C)[C@@H]1CC3 | 5.5 | 2.1 | 7.4 | 1.9 | 2 | Activity (U-937 [12]): Active
CC(=O)O[C@H]1CC[C@]2(C)C3=C(CC[C@H]2C1(C)C)[C@]1(C)CC[C@H]([C@H](C)CCCNc2ccccc2)[C@@]1(C)CC3 | – | – | – | 367 | – | –
C[C@H](CCCNc1ccccc1)[C@H]1CC[C@@]2(C)C3=C(CC[C@]12C)[C@@]1(C)CC[C@H](O)C(C)(C)[C@@H]1CC3 | – | – | – | 132 | – | –
COc1cc([C@@H]2c3cc4c(cc3[C@@H](O[C@@H]3O[C@@H]5CO[C@@H](C)O[C@H]5[C@H](O)[C@H]3O)[C@H]3COC(=O)[C@H]23)OCO4)cc(OC)c1O [ETOPOSIDE] | 24.8 | 5.9 | 23.7 | 1.5 | 6.4 | Activity (U-937 [12]): Active
C[C@H](CCCN1CCOCC1)[C@H]1CC[C@@]2(C)C3=C(CC[C@]12C)[C@@]1(C)CC[C@H](O)C(C)(C)[C@@H]1CC3 | – | – | – | 128 | – | –
C[C@H](CCCN1CCN(CCO)CC1)[C@H]1CC[C@@]2(C)C3=C(CC[C@]12C)[C@@]1(C)CC[C@H](O)C(C)(C)[C@@H]1CC3 | 6.6 | 1.3 | 7.6 | 2.7 | 1.2 | –
